# Test system: Acinetobacter baumannii ATCC17961
# Assay: Antimicrobial susceptibility testing: 90% growth inhibitory concentration (IC90) determination
# Type: cell-based
# Conditions: Acinetobacter baumannii, ATCC17961, 16 h, 90% growth inhibitory concentration against Acinetobacter baumannii ATCC17961, Iso-Sensitest broth, OD 600 nm over 16 h; read-out: ATCC 17961 IC90
# Procedure, shortened: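 OD600 monitored each minute over 16 h at 35±2° C for bacteria (~5×10^5 CFU/mL final) in Iso-Sensitest medium with 10-point twofold compound series (e.g. 10-0.0195 μM final). Concentration giving 90% growth inhibition in log phase reported as IC90.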
row,SMILES,IC90
1,"Cn1c(-c2cn(-c3cc4cc[nH]c4cn3)nc2C(F)(F)F)cnc1C(=O)Nc1ccc(C(=O)N2CCN(C(=O)[C@H]3CC[N@+](CC(=O)O)(CC4CNC4)CC3)CC2)c(Cl)c1 [Example 200, cis-2-[1-(azetidin-3-ylmethyl)-4-[4-[2-chloro-4-[[1-methyl-5-[1-(1H-pyrrolo[2,3-c]pyridin-5-yl)-3-(trifluoromethyl)pyrazol-4-yl]imidazole-2-carbonyl]amino]benzoyl]piperazine-1-carbonyl]piperidin-1-ium-1-yl]acetic acid. 1:1 2,2,2-trifluoroacetate]",400 nM
2,"Cn1c(-c2cn(-c3ccc4[nH]c(CO)cc4n3)nc2C(F)(F)F)cnc1C(=O)Nc1ccc(C(=O)N2CCC(C(=O)N3CC[N+](CCCN)(CC(=O)O)CC3)CC2)c(Cl)c1 [Example 134, 2-[1-(3-aminopropyl)-4-[1-[2-chloro-4-[[1-methyl-5-[1-(2-methylol-1H-pyrrolo[3,2-b]pyridin-5-yl)-3-(trifluoromethyl)pyrazol-4-yl]imidazole-2-carbonyl]amino]benzoyl]isonipecotoyl]piperazin-1-ium-1-yl]acetic acid. 1:1 2,2,2-trifluoroacetate]",327 nM
3,"Cn1c(-c2cn(-c3ccc(NCCOC(F)F)cc3F)nc2C(F)(F)F)cnc1C(=O)Nc1ccc(C(=O)N2CCN(C(=O)[C@H]3CC[N@+](CC(=O)O)(CC4CNC4)CC3)CC2)c(Cl)c1 [Example 126, cis-2-[1-(azetidin-3-ylmethyl)-4-[4-[2-chloro-4-[[5-[1-[4-[2-(difluoromethoxy)ethylamino]-2-fluoro-phenyl]-3-(trifluoromethyl)pyrazol-4-yl]-1-methyl-imidazole-2-carbonyl]amino]benzoyl]piperazine-1-carbonyl]piperidin-1-ium-1-yl]acetic acid;formate]",176 nM
4,"Cn1c(-c2cn(-c3cc4[nH]c(C(=O)N5CCNCC5)cc4cn3)nc2C(F)(F)F)cnc1C(=O)Nc1ccc(C(=O)N2CCN(C(=O)[C@H]3CC[N@+](CC(=O)O)(CC4CNC4)CC3)CC2)c(Cl)c1 [Example 118, cis-2-[1-(azetidin-3-ylmethyl)-4-[4-[2-chloro-4-[[1-methyl-5-[1-[2-(piperazine-1-carbonyl)-1H-pyrrolo[3,2-c]pyridin-6-yl]-3-(trifluoromethyl)pyrazol-4-yl]imidazole-2-carbonyl]amino]benzoyl]piperazine-1-carbonyl]piperidin-1-ium-1-yl]acetic acid. 1:1 2,2,2-trifluoroacetate]",213 nM
5,"Cn1c(-c2cn(-c3cc4[nH]c(C(=O)NC5CCNC5=O)cc4cn3)nc2C(F)(F)F)cnc1C(=O)Nc1ccc(C(=O)N2CCN(C(=O)[C@H]3CC[N@+](CC(=O)O)(CC4CNC4)CC3)CC2)c(Cl)c1 (stereo partly drawn) [Example 120, cis-2-[1-(azetidin-3-ylmethyl)-4-[4-[2-chloro-4-[[5-[1-[2-[(2-ketopyrrolidin-3-yl)carbamoyl]-1H-pyrrolo[3,2-c]pyridin-6-yl]-3-(trifluoromethyl)pyrazol-4-yl]-1-methyl-imidazole-2-carbonyl]amino]benzoyl]piperazine-1-carbonyl]piperidin-1-ium-1-yl]acetic acid. 1:1 2,2,2-trifluoroacetate]",527 nM
6,"Cn1c(-c2cn(-c3ccc(N)cn3)nc2C(F)(F)F)cnc1C(=O)Nc1ccc(C(=O)N2CCC(C(=O)NCCCc3cc[n+](CC(=O)O)c(CCCN)c3)CC2)c(Cl)c1 [Example 96, 2-[2-(3-aminopropyl)-4-[3-[[1-[4-[[5-[1-(5-amino-2-pyridyl)-3-(trifluoromethyl)pyrazol-4-yl]-1-methyl-imidazole-2-carbonyl]amino]-2-chloro-benzoyl]piperidine-4-carbonyl]amino]propyl]pyridin-1-ium-1-yl]acetic acid. 1:1 2,2,2-trifluoroacetic acid. 1:1 2,2,2-trifluoroacetate]",1820 nM

# Reference: patent US20250179066A1, “ZWITTERIONIC ANTIBACTERIAL COMPOUNDS” (Hoffmann-La Roche Inc., priority 2022, published 2025)
